Test results: ChEMBL document CHEMBL5120774, “Genome-Mining-Guided Discovery and Characterization of the PKS-NRPS-Hybrid Polyoxyperuin Produced by a Marine-Derived Streptomycete” (2022)
In brackets after ≈: the same amount, converted by molar mass.

Tests used:
Assay type in all cases: functional
Escherichia coli = assay: Antibacterial activity against Escherichia coli ATCC 35218 assessed as inhibition of bacterial growth incubated for 18 hrs by broth microdilution method
Listeria monocytogenes = assay: Antibacterial activity against Listeria monocytogenes DSM20600 assessed as inhibition of bacterial growth incubated for 48 hrs by BacTiter-Glo assay
[1] = tested on: Mycolicibacterium smegmatis; assay: Antibacterial activity against Mycobacterium smegmatis ATCC 607 assessed as inhibition of bacterial growth incubated for 48 hrs by BacTiter-Glo assay
Bacillus subtilis = assay: Antibacterial activity against Bacillus subtilis DSM10 assessed as inhibition of bacterial growth incubated for 18 hrs by broth microdilution method
Staphylococcus aureus = assay: Antibacterial activity against Staphylococcus aureus ATCC 25923 assessed as inhibition of bacterial growth incubated for 18 hrs by broth microdilution method
Micrococcus luteus = assay: Antibacterial activity against Micrococcus luteus DSM20030 assessed as inhibition of bacterial growth incubated for 18 hrs by broth microdilution method

MIC (Escherichia coli) [µg/mL]	MIC (Listeria monocytogenes) [µg/mL]	MIC [1] [µg/mL]	MIC (Bacillus subtilis) [µg/mL]	MIC (Staphylococcus aureus) [µg/mL]	MIC (Micrococcus luteus) [µg/mL]	SMILES
> 64	< 0.031	> 64	0.125 (≈ 0.146 µM)	0.125 (≈ 0.146 µM)	< 0.031	CC[C@H]1OC(O)(C(C)(O)C(=O)N[C@@H]2C(=O)N3NCCC[C@@H]3C(=O)N(O)[C@@H](C)C(=O)N(C)[C@@H](CC(C)C)C(=O)N3NCCC[C@@H]3C(=O)N(O)CC(=O)OC2C(C)C)CC[C@@H]1C (some centres not stated)
> 64	> 64	> 64	> 64	> 64	32 (≈ 36.7 µM)	CC[C@H]1OC(O)(C(C)(O)C(=O)N[C@H](C(=O)N2NCCC[C@@H]2C(=O)N(O)[C@@H](C)C(=O)N(C)[C@@H](CC(C)C)C(=O)N2NCCC[C@@H]2C(=O)N(O)CC(=O)O)C(O)C(C)C)CC[C@@H]1C (some centres not stated)
